Experimental findings from publication PMC6718988, “Bioactivity and Bactericidal Mechanism of Histidine-Rich β-Hairpin Peptide Against Gram-Negative Bacteria” (International Journal of Molecular Sciences, 2019) are described below.

One series concerns Gram-negative bacteria. Put plainly: MICs against Gram-negative strains (geometric mean, range). It counts as cell-based. To be noted: Gram-negative strains; 256 μM used where no activity at 128 μM. On the procedure: (§1) The minimum inhibitory concentration (MIC) was measured using a broth microdilution method to determine the in vitro antimicrobial activity of the peptides. Bacteria were inoculated into MHB and incubated overnight at 37 °C until the bacteria were in log phase growth. Next, we corrected the bacterial concentration to approximately 1 × 10^5 CFU/mL using MHB. The peptides were added to 96-well plates containing 0.01% acetic acid and 0.2% bovine serum albumin at final concentrations ranging from 0.25 to 128 μM. After incubation at 37 °C for 24 h, the absorbance was measured at 492 nm using a microplate reader (Tecan GENios F129004, Tecan, Austria). Broth containing microbes and […] were used as positive and negative controls, respectively. The lowest peptide concentration with no increase in absorbance compared to that of the negative control was defined as the MIC. The experiments were independently performed three times.

Series [1] is described as follows: RP-HPLC retention time as measure of hydrophobicity. Format: physicochemical. To be noted: analytical Kromasil C18 column 4.6 mm × 250 mm, 5.0 μm, acetonitrile, flow 1.0 mL/min, used as measure of hydrophobicity. How it is done:
The hydrophobicities of the peptides in solution were reliably mirrored by their high-performance liquid chromatography (HPLC)retention times. The retention times for peptide HI2, HW2, HV2, HF2, and PG-1 were 11.13, 10.55, 12.20, 18.06 and 12.56 min, respectively, indicating the following hydrophobic order: HF2 > PG-1 > HV2 > HI2 > HW2(Table 1).
The designed peptides were synthesized and purified by GL Biochem (Shanghai, China). Acetonitrile was used on an analytical Kromasil C18 column (4.6 mm × 250 mm, 5.0 μm, LC 3000, Beijing, China), and the purity of the peptides was determined to be greater than 95% via reversed-phase high-performance liquid chromatography (RP-HPLC) with a flow rate of 1.0 mL/min. The experimental molecular weights of the peptides were evaluated via ESI-MS analysis, and these values were very close to the calculated masses. Next, the peptides were dissolved in deionized water at a concentration of 2.56 mM, and the peptide solutions were stored at −20 °C.

Series [2] concerns Gram-positive and Gram-negative bacteria. The settings on record: all strains; 256 μM used where no activity at 128 μM. How it is done: as §1
Another series concerns Gram-positive bacteria. The settings on record: Gram-positive strains; 256 μM used where no activity at 128 μM. On the procedure:
as §1

For a further series, the system named is S. epidermidis ATCC12228. Put plainly: microbe, parasite or virus in culture. How it is done: as §1
The subject of another series is P. aeruginosa ATCC27853. Briefly: microbe, parasite or virus in culture. On the procedure:
as §1

The next series deals with E. coli UB1005. Put plainly: microbe, parasite or virus in culture. How it is done: as §1
Series [3] deals with E. coli ATCC25922. Put plainly: microbe, parasite or virus in culture. How it is done:
as §1

The subject of series [4] is methicillin-resistant S. aureus ATCC43300. Put plainly: microbe, parasite or virus in culture. On the procedure:
as §1

The next series concerns E. coli K88. Put plainly: microbe, parasite or virus in culture. The settings on record: E. coli K88; MHB, about 1 × 10^5 CFU/mL, 37 °C, 24 h; three independent experiments. On the procedure:
as §1

A further series relates to S. pullorum C7913. Put plainly: microbe, parasite or virus in culture. On the procedure: as §1
A further series relates to E. coli K99. Put plainly: microbe, parasite or virus in culture. To be noted: E. coli K99; MHB, about 1 × 10^5 CFU/mL, 37 °C, 24 h; three independent experiments. How it is done: as §1
Another series relates to S. aureus ATCC29213. Put plainly: microbe, parasite or virus in culture. On the procedure: as §1
In series [5] the test system is human red blood cells (hRBCs). Briefly: Hemolytic activity. To be noted: 1 h, OD 570 nm; for hemolysis rate: at the highest concentration (128 μM), 1% hRBC in PBS, 37 °C, 0.1% Triton X-100 positive control; for MHC, minimum hemolytic concentration: concentration causing 5% hemolysis of hRBC, 1% hRBC in PBS pH 7.4, 37 °C, repeated three times.
Procedure: Briefly, collected human red blood cells (hRBCs) were washed three times with PBS (pH 7.4) and diluted to 1% in PBS. Next, equal volumes of blood cells were mixed with different peptide concentrations in 96-well plates followed by incubated at 37 °C for 1 h. The mixtures were centrifuged (1000 g, 5 min), and the supernatants were transferred to 96-well plates to measure the optical density (OD) at 570 nm. Untreated blood cells were used as negative controls, and 0.1% Triton X-100-treated blood cells were used as positive controls. The minimum peptide concentration corresponding to 5% hemolytic activity was defined as the minimal hemolytic concentration (MHC). These assays were independently repeated three times.
A short description of series [6]: LPS binding assay (BODIPY-TR-cadaverine displacement). To be noted: peptide concentration higher than 4 μM; 50 μg/mL LPS, 5 μg/mL BODIPY-TR cadaverine, Tris 50 mM pH 7.4; 100% = 10 μg/mL polymyxin B. Also noted: species or system E. coli. On the procedure:
The abilities of the antimicrobial peptides to bind LPS were determined using the fluorescent dye BODIPY-TR-cadaverine (BC) substitution method. LPS (50 μg/mL) from E. coli O111:B4 was incubated with BC (5 μg/mL) in Tris buffer (50 mm, pH 7.4) for 4 h. Next, 50 μL of various concentrations of peptides (final concentration of 1–64 μM) and 50 μL of LPS-BC mixture were added to 96-well plates, and the fluorescence was measured using a fluorescence spectrophotometer (Infinite 200 pro, Tecan, China) at an excitation wavelength of 580 nm and an emission wavelength of 620 nm. Each test was performed three times. The values were converted to %∆F (AU) using the following equation:%ΔF (AU) = [(Fobs − F0)/(F100 − F0)] × 100 where Fobs is the fluorescence value measured in the presence of the peptide, F0 is the initial fluorescence of LPS with BC without the addition of peptides, F100 is the fluorescence value produced by adding 10 μg/mL polymyxin B.

Series [7] relates to E. coli ATCC25922. Briefly: Swimming motility assay. Format: cell-based. The settings on record: E. coli ATCC25922, 0.3% agar, 1–8 μM peptide, 37 °C, 20 h; versus untreated control. On the procedure:
The cell motility assay was performed on LB medium containing 0.3% agar. The peptides were added to 10 mL of medium at final concentrations of 1–8 μM. After mixing well, the mixtures were poured into 6-well plates and dried for 2 h. Subsequently, an overnight culture of E. coli ATCC 25922 was inoculated in the center of the movement plate. After incubation at 37 °C for 20 h, images were taken using a FluoroChemQ system (Cell biosciences, San Jose, CA, USA). The experiment was independently repeated three times.

Series [8] deals with E. coli ATCC25922. Briefly: Salt sensitivity assay (MIC in presence of physiological salts). Also noted: unit not given here. It counts as cell-based. On the procedure: Bacteria were inoculated into MHB and incubated overnight at 37 °C until the bacteria were in log phase growth. Next, we corrected the bacterial concentration to approximately 1 × 10^5 CFU/mL using MHB. […] After incubation at 37 °C for 24 h, the absorbance was measured at 492 nm using a microplate reader (Tecan GENios F129004, Tecan, Austria). Broth containing microbes and […] were used as positive and negative controls, respectively. The lowest peptide concentration with no increase in absorbance compared to that of the negative control was defined as the MIC. The experiments were independently performed three times. The effects of salt ions on the antibacterial activities of the antimicrobial peptides were evaluated. Different salt ion concentrations were added to BSA peptide dilutions, and the next steps followed the MIC measurement method. […] These tests were independently repeated three times.

In series [9] the test system is E. coli ATCC25922. Put plainly: SEM characterization of cell morphology. It counts as cell-based. The settings on record: E. coli ATCC25922, 1 × MIC (HV2 8 μM, PG-1 4 μM), 1 h. How it is done: For the SEM sample preparation, E. coli ATCC25922 cells were cultured at 37 °C to mid-log phase in MH broth with constant shaking at 220 rpm, centrifuged at 1000 g and then adjusted to an OD600 of 0.1–0.2 in PBS. […] Bacteria incubated with PBS served as controls. After the incubation, the mixture was centrifuged at 5000 g for 5 min, and the collected bacteria were washed three times with PBS. Approximately 2.5% (w/v) glutaraldehyde was added for fixation at 4 °C overnight, followed by washing three times with PBS. The samples were dehydrated with 50%, 70%, 90%, 100% ethanol for 10 min. A mixture of ethanol and tert-butanol was added to the dried bacterial cells for 30 min, and then t-butanol was added for 1 h. Finally, the samples were dehydrated and coated with liquid CO2 in a critical point dryer and then observed using a Hitachi S-4800 SEM (Hitachi, Tokyo, Japan).

In brackets after ≈: the same amount, converted by molar mass. Where a SMILES comes first, the peptide text is derived from it. [ ]: non-standard residue; d: D form.

On to `N=C(N)NCCC[C@H](NC(=O)[C@H](CCCNC(=N)N)NC(=O)[C@H](Cc1c[nH]c2ccccc12)NC(=O)[C@H](Cc1c[nH]cn1)NC(=O)[C@H](Cc1c[nH]c2ccccc12)NC(=O)[C@H](Cc1c[nH]cn1)NC(=O)[C@H](Cc1c[nH]c2ccccc12)NC(=O)CNC(=O)[C@H]1CCCN1C(=O)[C@H](Cc1c[nH]c2ccccc12)NC(=O)[C@H](Cc1c[nH]cn1)NC(=O)[C@H](Cc1c[nH]c2ccccc12)NC(=O)[C@H](Cc1c[nH]cn1)NC(=O)[C@H](Cc1c[nH]c2ccccc12)NC(=O)[C@H](CCCNC(=N)N)NC(=O)[C@@H](N)CCCNC(=N)N)C(N)=O` [HW2] (H-RRWHWHW[dP]GWHWHWRR-NH2; N-terminus assumed), for which, in the series on Gram-negative bacteria, the “MBC (GM), geometric mean of MICs, Gram (−)” value is 3.56 µM. In series [1], the “Retention Time” value came to 10.55 min. Moreover, the “MBC (GM), geometric mean of MICs, Gram (+,−)” value in series [2] is 3.17 µM. The “MBC (GM), geometric mean of MICs, Gram (+)” value in the series on Gram-positive bacteria is 2.52 µM. For the same molecule, the MIC with S. epidermidis ATCC12228 (ATCC12228, 24 h) turned out to be 2 µM (≈ 4.92 µg/mL); in the series with P. aeruginosa ATCC27853 (ATCC27853, 24 h), 8 µM (≈ 19.7 µg/mL); against E. coli UB1005 (UB1005, 24 h) it was 2 µM (≈ 4.92 µg/mL); against E. coli ATCC25922 [3] (ATCC25922, 24 h) it was 4 µM (≈ 9.85 µg/mL); in [4] (ATCC43300, 24 h) it was 2 µM (≈ 4.92 µg/mL); against E. coli K88 it was 4 µM (≈ 9.85 µg/mL). Besides, the MIC against S. pullorum C7913 (C7913, 24 h) turned out to be 2 µM (≈ 4.92 µg/mL); in the series on E. coli K99 it was 4 µM (≈ 9.85 µg/mL); in the series with S. aureus ATCC29213 (ATCC29213, 24 h), 4 µM (≈ 9.85 µg/mL). Besides, the hemolysis rate in series [5] came to 15.58%. Also, the “MHC, minimum hemolytic concentration” value in series [5] is given as 8 µM. Further, the “LPS binding ability relative to binding activity of polymyxin B” value in series [6] was “higher than 60%”.
As to “RGGRLCYCRRFCVCVGR-NH2 [PG-1, Protegrin-1, reference compound]”, the “MBC (GM), geometric mean of MICs, Gram (−)” value against Gram-negative bacteria was 3.17 µM. The “Retention Time” value in [1] was determined as 12.56 min. Besides, the “swimming motility (diameter of swimming bacteria)” value with E. coli ATCC25922 [7] is reported as “significantly reduced the diameter of the swimming bacteria”. Also, in series [2], the “MBC (GM), geometric mean of MICs, Gram (+,−)” value came out at 3.70 µM. The “MBC (GM), geometric mean of MICs, Gram (+)” value against Gram-positive bacteria amounted to 5.04 µM. Further, the MIC came to 8 µM against S. epidermidis ATCC12228 (S.epidermidis 12228, MHB, about 1 × 10^5 CFU/mL, 37 °C, 24 h, three independent experiments); 8 µM against P. aeruginosa ATCC27853 (P. auruginosa 27853, MHB, about 1 × 10^5 CFU/mL, 37 °C, 24 h, three independent experiments); 2 µM against E. coli UB1005 (E. coli UB1005, MHB, about 1 × 10^5 CFU/mL, 37 °C, 24 h, three independent experiments); 4 µM in the series on E. coli ATCC25922 [3] (E. coli 25922, MHB, about 1 × 10^5 CFU/mL, 37 °C, 24 h, 0.25-128 μM, three independent experiments); 8 µM in [4] (S.aureus 43300 (methicillin-resistant), MHB, about 1 × 10^5 CFU/mL, 37 °C, 24 h, three independent experiments); 2 µM with E. coli K88. Besides, the MIC came to 4 µM against S. pullorum C7913 (S.pullorum C7913, MHB, about 1 × 10^5 CFU/mL, 37 °C, 24 h, three independent experiments); 2 µM against E. coli K99; 2 µM against S. aureus ATCC29213 (S.aureus 29213, MHB, about 1 × 10^5 CFU/mL, 37 °C, 24 h, three independent experiments). In addition, the hemolysis rate in [5] is 48.13%. Moreover, the “MHC, minimum hemolytic concentration” value in series [5] was 4 µM. For the same molecule, the “MIC, FeCl3” value with E. coli ATCC25922 [8] (E. coli ATCC25922, 4 μM FeCl3, unit not given) worked out at 4. Besides, the “MIC, NH4Cl” value with E. coli ATCC25922 [8] (E. coli ATCC25922, 6 μM NH4Cl, unit not given) is 4. Also, the “MIC, ZnCl2” value with E. coli ATCC25922 [8] (E. coli ATCC25922, 8 μM ZnCl2, unit not given) came out at 2. Also, the “MIC, MgCl2” value in the series on E. coli ATCC25922 [8] (E. coli ATCC25922, 1 mM MgCl2, unit not given) stood at 4. Besides, the “MIC, KCl” value in the series on E. coli ATCC25922 [8] (E. coli ATCC25922, 4.5 mM KCl, unit not given) was found to be 4. The “MIC, NaCl” value in the series with E. coli ATCC25922 [8] (E. coli ATCC25922, 150 mM NaCl, unit not given) came to 4. In addition, in the series with E. coli ATCC25922 [8] (E. coli ATCC25922, absence of physiological salts, no unit printed in Table 3 (Table 2 MIC in μM)), the “MIC, Control” value was determined as 4. The “cell morphology by SEM” value with E. coli ATCC25922 [9] was “rough and wrinkled”.
